From patent publication US9809623B2, “α4β7 peptide monomer and dimer antagonists” (Protagonist Therapeutics, Inc., priority 2014, dated 2017)
Numbered stars: 1 amine (or outer) side, 2 acyl side, 3 side chain; on linkers, the order of the positions; unused ones are H or OH. Bridge positions count the residues as written; N and C are the ends. Square brackets hold non-standard residues; d marks the D form. Peptide text beside a SMILES is read from it. I, II: the chains in the order shown. * marks the point of attachment. X1 = O=C(CCOCCOCCOCCOCCOCCOCCOCCOCCOCCOCCOCCOCCOCCOCCOCCOCCOCCOCCOCCOCCOCCOCCOCCOCCOCCOCCC(=O)[*:2])[*:1]; Phe(4-tBu) = CC(C)(C)c1ccc(C[C@H](N)C(=O)O)cc1; 1Nal = N[C@@H](Cc1cccc2ccccc12)C(=O)O; 2Nal = N[C@@H](Cc1ccc2ccccc2c1)C(=O)O; Diglycolyl = O=C(COCC(=O)[*:2])[*:1]; NMeR = CN[C@@H](CCCNC(=N)N)C(=O)O; Tic = O=C(O)[C@@H]1Cc2ccccc2CN1; β3hE = N[C@@H](CCC(=O)O)CC(=O)O; Pen = CC(C)(S)[C@H](N)C(=O)O; Lauroyl = CCCCCCCCCCCC(=O)*; Hexanoyl = CCCCCC(=O)*

Biological target: α4β7 (Homo sapiens, UniProt P13612+P26010)
Sequence (P13612 34-1032): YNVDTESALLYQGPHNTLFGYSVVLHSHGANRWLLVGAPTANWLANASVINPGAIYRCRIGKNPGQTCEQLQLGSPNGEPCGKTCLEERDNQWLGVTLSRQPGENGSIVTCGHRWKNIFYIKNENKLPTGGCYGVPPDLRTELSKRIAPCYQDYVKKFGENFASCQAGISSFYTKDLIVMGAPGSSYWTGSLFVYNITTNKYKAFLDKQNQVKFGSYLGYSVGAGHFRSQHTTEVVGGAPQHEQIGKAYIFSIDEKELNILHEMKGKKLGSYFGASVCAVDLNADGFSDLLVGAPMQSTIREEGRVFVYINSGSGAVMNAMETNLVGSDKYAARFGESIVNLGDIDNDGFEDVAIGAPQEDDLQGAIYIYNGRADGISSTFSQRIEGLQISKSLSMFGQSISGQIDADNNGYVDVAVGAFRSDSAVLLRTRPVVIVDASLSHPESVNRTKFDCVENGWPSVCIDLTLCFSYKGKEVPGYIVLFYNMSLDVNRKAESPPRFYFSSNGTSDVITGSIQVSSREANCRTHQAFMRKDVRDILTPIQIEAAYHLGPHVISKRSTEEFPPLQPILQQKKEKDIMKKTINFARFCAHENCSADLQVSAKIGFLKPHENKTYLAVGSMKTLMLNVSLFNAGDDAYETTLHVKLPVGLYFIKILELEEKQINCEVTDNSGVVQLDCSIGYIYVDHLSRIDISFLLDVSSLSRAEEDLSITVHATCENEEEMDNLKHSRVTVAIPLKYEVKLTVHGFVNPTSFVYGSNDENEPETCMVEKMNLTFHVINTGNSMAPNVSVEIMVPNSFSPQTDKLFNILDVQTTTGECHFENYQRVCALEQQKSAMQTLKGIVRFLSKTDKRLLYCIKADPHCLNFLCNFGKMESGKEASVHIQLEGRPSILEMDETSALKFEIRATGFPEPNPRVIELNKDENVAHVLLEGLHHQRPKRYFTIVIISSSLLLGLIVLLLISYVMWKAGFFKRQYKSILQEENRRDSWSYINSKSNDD
Sequence (P26010 20-798): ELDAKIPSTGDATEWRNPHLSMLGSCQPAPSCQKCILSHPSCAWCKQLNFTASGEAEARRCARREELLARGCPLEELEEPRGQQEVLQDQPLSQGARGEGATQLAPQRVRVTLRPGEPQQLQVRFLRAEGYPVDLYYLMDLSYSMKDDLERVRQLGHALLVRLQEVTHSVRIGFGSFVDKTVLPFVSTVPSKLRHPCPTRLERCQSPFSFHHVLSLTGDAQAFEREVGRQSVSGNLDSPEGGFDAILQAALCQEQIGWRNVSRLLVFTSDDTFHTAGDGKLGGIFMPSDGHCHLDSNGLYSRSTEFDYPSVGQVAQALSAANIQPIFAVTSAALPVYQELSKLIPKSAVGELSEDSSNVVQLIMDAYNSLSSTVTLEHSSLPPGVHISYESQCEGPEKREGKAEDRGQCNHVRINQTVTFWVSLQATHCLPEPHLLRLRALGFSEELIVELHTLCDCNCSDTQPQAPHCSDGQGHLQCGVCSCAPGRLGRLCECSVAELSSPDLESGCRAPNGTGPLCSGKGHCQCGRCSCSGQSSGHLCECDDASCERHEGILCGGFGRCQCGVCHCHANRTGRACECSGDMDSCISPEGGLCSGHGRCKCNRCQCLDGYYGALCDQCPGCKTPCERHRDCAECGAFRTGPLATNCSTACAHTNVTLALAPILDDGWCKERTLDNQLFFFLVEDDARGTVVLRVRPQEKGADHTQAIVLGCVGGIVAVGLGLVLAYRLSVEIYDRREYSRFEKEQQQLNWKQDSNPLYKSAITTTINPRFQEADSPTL
Test: α4β7-MAdCAM Cell Adhesion Assay (RPMI 8866 human cells)
Format: cell-based
Parameters: host or cells: RPMI 8866 human B lymphoblastoid cells
Conditions: Table 3-B, Potency (α4β7); range classes; read-out: α4β7 cell (Hu) IC50
Procedure: RPMI 8866 human cells (Sigma #95041316) were cultured in RPMI 1640 HEPES medium (Invitrogen #22400-089) supplemented with 10% serum (Fetal Bovine Serum, Invitrogen #16140-071), 1 mM sodium pyruvate (Invitrogen #11360-070), 2 mM L-glutamine (Invitrogen #25030-081) and Penicillin-Streptomycin (Invitrogen #15140-122) at 100 units of penicillin and 100 μg of streptomycin per ml. The cells were washed two times in DMEM medium (ATCC #30-2002) supplemented with 0.1% BSA, 10 mM HEPES pH 7 and 1 mM MnCl2. The cells were re-suspended in supplemented DMEM medium at a density of 4×10^6 cells/ml.
A Nunc MaxiSorp plate was coated with rh MAdCAM-1/Fc Chimera (R&D #6065-MC) at 200 ng per well in 50 ul per well in 1×PBS and incubated at 4° C. overnight. The solution was then removed by shaking, blocked with 250 ul per well PBS containing 1% BSA, and incubated at 37° C. for 1 hr. The solution was removed by shaking. Peptides were diluted by serial dilution in a final volume of 50 ul per well (2× concentration). To each well, 50 ul of cells (200,000 cells) were added and the plate was incubated at 37° C., 5% CO2 for 30-45 min to allow cell adhesion. The wells were washed manually three times (100 ul per wash) with supplemented DMEM. After the final wash, 100 ul/well of supplemented DMEM and 10 ul/well of MTT reagent (ATTC cat#30-1010K) were added. The plate was incubated at 37° C., 5% CO2 for 2-3 hrs until a purple precipitate was visible. 100 ul of Detergent Reagent (ATTC cat#30-1010K) was added to each well. The plate was covered from the light, wrapped in Parafilm to prevent evaporation, and left overnight at room temperature in the dark. The plate was shaken for 5 min and the absorbance at 570 nm was measured. To calculate the dose response, the absorbance value of control wells not containing cells was subtracted from each test well.

Row | Compound | IC50
1 | CCCCCC(=O)N[C@@H]1C(=O)N(C)[C@@H](CCCNC(=N)N)C(=O)N[C@@H](CO)C(=O)N[C@@H](CC(=O)O)C(=O)N[C@@H]([C@@H](C)O)C(=O)N[C@@H](CC(C)C)C(=O)N[C@H](C(=O)N[C@@H](Cc2ccc(C(C)(C)C)cc2)C(=O)N[C@@H](CCC(=O)O)CC(=O)N[C@H](CCCCN)C(N)=O)C(C)(C)SSC1(C)C [compound 176] (Hexanoyl-[Pen][NMeR]SDTL[Pen][Phe(4-tBu)][β3hE][dK]-NH2; disulfide 1-7) | 0.05 to 0.1 µM
2 | CC(=O)N[C@@H]1C(=O)N(C)[C@@H](CCCNC(=N)N)C(=O)N[C@@H](CO)C(=O)N[C@@H](CC(=O)O)C(=O)N[C@@H]([C@@H](C)O)C(=O)N[C@@H](CCC(N)=O)C(=O)N[C@H](C(=O)N[C@@H](Cc2ccc3ccccc3c2)C(=O)N[C@H](CCC(=O)O)C(N)=O)C(C)(C)SSC1(C)C [compound 163] (Ac-[Pen][NMeR]SDTQ[Pen][2Nal][dE]-NH2; disulfide 1-7) | 1 to 10 µM
3 | CC(=O)N[C@@H]1C(=O)N(C)[C@@H](CCCNC(=N)N)C(=O)N[C@@H](CO)C(=O)N[C@@H](CC(=O)O)C(=O)N[C@@H]([C@@H](C)O)C(=O)N[C@@H](CC(C)C)C(=O)N[C@H](C(=O)N[C@@H](Cc2ccc3ccccc3c2)C(=O)N[C@@H](CCC(=O)O)C(N)=O)C(C)(C)SSC1(C)C [compound 75] (Ac-[Pen][NMeR]SDTL[Pen][2Nal]E-NH2; disulfide 1-7) | 0.05 to 0.1 µM
4 | CC(=O)N[C@@H]1C(=O)N(C)[C@@H](CCCNC(=N)N)C(=O)N[C@@H](CO)C(=O)N[C@@H](CC(=O)O)C(=O)N[C@@H]([C@@H](C)O)C(=O)N[C@@H](CC(C)C)C(=O)N[C@H](C(=O)N[C@@H](Cc2c[nH]c3ccccc23)C(=O)N2Cc3ccccc3C[C@H]2C(=O)N[C@H](CCCCNC(=O)COCC(=O)NCCCC[C@@H](NC(=O)[C@@H]2Cc3ccccc3CN2C(=O)[C@H](Cc2c[nH]c3ccccc23)NC(=O)[C@H]2NC(=O)[C@H](CC(C)C)NC(=O)[C@H]([C@@H](C)O)NC(=O)[C@H](CC(=O)O)NC(=O)[C@H](CO)NC(=O)[C@H](CCCNC(=N)N)N(C)C(=O)[C@@H](NC(C)=O)C(C)(C)SSC2(C)C)C(N)=O)C(N)=O)C(C)(C)SSC1(C)C [compound 109] (I: Ac-[Pen][NMeR]SDTL[Pen]W[Tic][dK]-NH2 / II: Ac-[Pen][NMeR]SDTL[Pen]W[Tic][dK]-NH2; disulfide I:1-I:7, II:1-II:7; linker I:10-II:10 via Diglycolyl) | 0.1 to 0.5 µM
5 | CCCCCCCCCCCC(=O)N[C@@H]1C(=O)N(C)[C@@H](CCCNC(=N)N)C(=O)N[C@@H](CO)C(=O)N[C@@H](CC(=O)O)C(=O)N[C@@H]([C@@H](C)O)C(=O)N[C@@H](CC(C)C)C(=O)N[C@H](C(=O)N[C@@H](Cc2ccc(C(C)(C)C)cc2)C(=O)N[C@@H](CCC(=O)O)CC(=O)N[C@H](CCCCN)C(N)=O)C(C)(C)SSC1(C)C [compound 179] (Lauroyl-[Pen][NMeR]SDTL[Pen][Phe(4-tBu)][β3hE][dK]-NH2; disulfide 1-7) | 0.1 to 0.5 µM
6 | CC(=O)N[C@H]1CSSC(C)(C)[C@@H](C(=O)N[C@@H](Cc2c[nH]c3ccccc23)C(=O)N[C@H](CCCCNC(=O)CCOCCOCCOCCOCCOCCOCCOCCOCCOCCOCCOCCOCCOCCOCCOCCOCCOCCOCCOCCOCCOCCOCCOCCOCCOCCOCCC(=O)NCCCC[C@@H](NC(=O)[C@H](Cc2c[nH]c3ccccc23)NC(=O)[C@H]2NC(=O)[C@H](CC(C)C)NC(=O)[C@H]([C@@H](C)O)NC(=O)[C@H](CC(=O)O)NC(=O)[C@H](CO)NC(=O)[C@H](CCCNC(=N)N)N(C)C(=O)[C@@H](NC(C)=O)CSSC2(C)C)C(N)=O)C(N)=O)NC(=O)[C@H](CC(C)C)NC(=O)[C@H]([C@@H](C)O)NC(=O)[C@H](CC(=O)O)NC(=O)[C@H](CO)NC(=O)[C@H](CCCNC(=N)N)N(C)C1=O [compound 37] (I: Ac-C[NMeR]SDTL[Pen]W[dK]-NH2 / II: Ac-C[NMeR]SDTL[Pen]W[dK]-NH2; disulfide I:1-I:7, II:1-II:7; linker I:9-II:9 via X1) | 0.1 to 0.5 µM
7 | CC(=O)N[C@@H]1C(=O)N(C)[C@@H](CCCNC(=N)N)C(=O)N[C@@H](CO)C(=O)N[C@@H](CC(=O)O)C(=O)N[C@@H]([C@@H](C)O)C(=O)N[C@@H](CC(C)C)C(=O)N[C@H](C(=O)N[C@@H](Cc2c[nH]c3ccccc23)C(=O)N[C@@H](CC(=O)O)C(=O)N[C@H](CCCCNC(=O)COCC(=O)NCCCC[C@@H](NC(=O)[C@H](CC(=O)O)NC(=O)[C@H](Cc2c[nH]c3ccccc23)NC(=O)[C@H]2NC(=O)[C@H](CC(C)C)NC(=O)[C@H]([C@@H](C)O)NC(=O)[C@H](CC(=O)O)NC(=O)[C@H](CO)NC(=O)[C@H](CCCNC(=N)N)N(C)C(=O)[C@@H](NC(C)=O)C(C)(C)SSC2(C)C)C(N)=O)C(N)=O)C(C)(C)SSC1(C)C [compound 87] (I: Ac-[Pen][NMeR]SDTL[Pen]WD[dK]-NH2 / II: Ac-[Pen][NMeR]SDTL[Pen]WD[dK]-NH2; disulfide I:1-I:7, II:1-II:7; linker I:10-II:10 via Diglycolyl) | 0.025 to 0.05 µM
8 | CC(=O)N[C@@H]1C(=O)N(C)[C@@H](CCCNC(=N)N)C(=O)N[C@@H](CO)C(=O)N[C@@H](CC(=O)O)C(=O)N[C@@H]([C@@H](C)O)C(=O)N[C@@H](CC(C)C)C(=O)N[C@H](C(=O)N[C@@H](Cc2c[nH]cn2)C(=O)N[C@H](CCC(=O)O)C(=O)N[C@H](CCCCNC(=O)COCC(=O)NCCCC[C@@H](NC(=O)[C@@H](CCC(=O)O)NC(=O)[C@H](Cc2c[nH]cn2)NC(=O)[C@H]2NC(=O)[C@H](CC(C)C)NC(=O)[C@H]([C@@H](C)O)NC(=O)[C@H](CC(=O)O)NC(=O)[C@H](CO)NC(=O)[C@H](CCCNC(=N)N)N(C)C(=O)[C@@H](NC(C)=O)C(C)(C)SSC2(C)C)C(N)=O)C(N)=O)C(C)(C)SSC1(C)C [compound 124] (I: Ac-[Pen][NMeR]SDTL[Pen]H[dE][dK]-NH2 / II: Ac-[Pen][NMeR]SDTL[Pen]H[dE][dK]-NH2; disulfide I:1-I:7, II:1-II:7; linker I:10-II:10 via Diglycolyl) | 0.1 to 0.5 µM
9 | CC(=O)N[C@@H]1C(=O)N(C)[C@@H](CCCNC(=N)N)C(=O)N[C@@H](CO)C(=O)N[C@@H](CC(=O)O)C(=O)N[C@@H]([C@@H](C)O)C(=O)N[C@@H](CC(C)C)C(=O)N[C@H](C(=O)N[C@@H](Cc2ccc(C(C)(C)C)cc2)C(=O)N[C@H](CCC(=O)O)C(=O)N[C@H](CCCCNC(=O)COCC(=O)NCCCC[C@@H](NC(=O)[C@@H](CCC(=O)O)NC(=O)[C@H](Cc2ccc(C(C)(C)C)cc2)NC(=O)[C@H]2NC(=O)[C@H](CC(C)C)NC(=O)[C@H]([C@@H](C)O)NC(=O)[C@H](CC(=O)O)NC(=O)[C@H](CO)NC(=O)[C@H](CCCNC(=N)N)N(C)C(=O)[C@@H](NC(C)=O)C(C)(C)SSC2(C)C)C(N)=O)C(N)=O)C(C)(C)SSC1(C)C [compound 106] (I: Ac-[Pen][NMeR]SDTL[Pen][Phe(4-tBu)][dE][dK]-NH2 / II: Ac-[Pen][NMeR]SDTL[Pen][Phe(4-tBu)][dE][dK]-NH2; disulfide I:1-I:7, II:1-II:7; linker I:10-II:10 via Diglycolyl) | < 0.01 µM
10 | CC(=O)N[C@@H]1C(=O)N(C)[C@@H](CCCNC(=N)N)C(=O)N[C@@H](CO)C(=O)N[C@@H](CC(=O)O)C(=O)N[C@@H]([C@@H](C)O)C(=O)N[C@@H](CC(C)C)C(=O)N[C@H](C(=O)N[C@@H](Cc2cccc3ccccc23)C(=O)N[C@H](Cc2c[nH]cn2)C(=O)N[C@H](CCCCNC(=O)COCC(=O)NCCCC[C@@H](NC(=O)[C@@H](Cc2c[nH]cn2)NC(=O)[C@H](Cc2cccc3ccccc23)NC(=O)[C@H]2NC(=O)[C@H](CC(C)C)NC(=O)[C@H]([C@@H](C)O)NC(=O)[C@H](CC(=O)O)NC(=O)[C@H](CO)NC(=O)[C@H](CCCNC(=N)N)N(C)C(=O)[C@@H](NC(C)=O)C(C)(C)SSC2(C)C)C(N)=O)C(N)=O)C(C)(C)SSC1(C)C [compound 112] (I: Ac-[Pen][NMeR]SDTL[Pen][1Nal][dH][dK]-NH2 / II: Ac-[Pen][NMeR]SDTL[Pen][1Nal][dH][dK]-NH2; disulfide I:1-I:7, II:1-II:7; linker I:10-II:10 via Diglycolyl) | 0.05 to 0.1 µM
11 | CC(=O)N[C@@H]1C(=O)N(C)[C@@H](CCCNC(=N)N)C(=O)N[C@@H](CO)C(=O)N[C@@H](CC(=O)O)C(=O)N[C@@H]([C@@H](C)O)C(=O)N[C@@H](CC(C)C)C(=O)N[C@H](C(=O)N[C@@H](Cc2c[nH]c3ccccc23)C(=O)N[C@@H](Cc2ccccc2)C(=O)N[C@H](CCCCNC(=O)COCC(=O)NCCCC[C@@H](NC(=O)[C@H](Cc2ccccc2)NC(=O)[C@H](Cc2c[nH]c3ccccc23)NC(=O)[C@H]2NC(=O)[C@H](CC(C)C)NC(=O)[C@H]([C@@H](C)O)NC(=O)[C@H](CC(=O)O)NC(=O)[C@H](CO)NC(=O)[C@H](CCCNC(=N)N)N(C)C(=O)[C@@H](NC(C)=O)C(C)(C)SSC2(C)C)C(N)=O)C(N)=O)C(C)(C)SSC1(C)C [compound 85] (I: Ac-[Pen][NMeR]SDTL[Pen]WF[dK]-NH2 / II: Ac-[Pen][NMeR]SDTL[Pen]WF[dK]-NH2; disulfide I:1-I:7, II:1-II:7; linker I:10-II:10 via Diglycolyl) | < 0.01 µM
